In BigSolDB 2.1:

CC1(C)COP(=O)(O)OC1c1ccccc1Cl (centres undefined)
solubility (mole fraction)
Settings	in acetic acid	in ethanol	in isopropanol	in methanol	in tert-butanol	in water
278.15 K	–	0.00426	0.0114	0.00445	–	0.000124
283.15 K	–	0.00473	0.0135	0.00519	–	0.000123
288.15 K	–	0.00536	0.016	0.00572	–	0.000136
293.15 K	0.00131	0.00614	0.0176	0.00644	–	0.000157
298.15 K	0.00156	0.00685	0.0207	0.00713	–	0.000162
303.15 K	0.00186	0.00783	0.0251	0.00809	0.0228	0.000164
308.15 K	0.00221	0.00884	0.029	0.00892	0.0281	0.000166
313.15 K	0.0025	0.00995	0.0342	0.0105	0.0313	0.000168
318.15 K	0.00277	0.0121	0.0391	0.0125	0.0359	0.00017
323.15 K	0.00341	0.0135	0.0448	0.0145	0.0398	–
328.15 K	0.0039	–	–	–	0.0469	–
333.15 K	0.00449	–	–	–	0.051	–
338.15 K	0.00523	–	–	–	0.0574	–
343.15 K	–	–	–	–	0.0629	–
348.15 K	–	–	–	–	0.0691	–
